Experimental data: ChEMBL document CHEMBL3885881, “DrugMatrix”

Species: Rattus norvegicus
Assay: DrugMatrix - Regimen: Daily Repeat
Type: toxicity, organism-based, Sprague-Dawley
Design: regimen Daily Repeat, gender Male, age 6-8 weeks
Settings: in vivo, po, route oral GAVAGE, vehicle 100 % WATER; for ABSOLUTE BASOPHIL / ABSOLUTE EOSINOPHIL / ABSOLUTE LYMPHOCYTE / ABSOLUTE MONOCYTE / ABSOLUTE SEGMENTED NEUTROPHIL / BASOPHIL / EOSINOPHIL / ERYTHROCYTE COUNT / HEMATOCRIT / HEMOGLOBIN / LEUKOCYTE COUNT / LYMPHOCYTE / MEAN CORPUSCULAR HEMOGLOBIN / MEAN CORPUSCULAR HEMOGLOBIN CONCENTRATION / MEAN CORPUSCULAR VOLUME / MONOCYTE / NEUTROPHIL / NUCLEATED RED BLOOD CELLS / PLATELET COUNT: tissue Blood; for ALANINE AMINOTRANSFERASE / ALBUMIN / ALKALINE PHOSPHATASE / ASPARTATE AMINOTRANSFERASE / BLOOD UREA NITROGEN / CARBON DIOXIDE / CHLORIDE / CHOLESTEROL / CREATINE PHOSPHOKINASE / CREATININE / GLUCOSE / LACTATE DEHYDROGENASE / LIPASE / PHOSPHORUS / SODIUM / TOTAL BILIRUBIN / TOTAL PROTEIN / URIC ACID: tissue Plasma
[1] = 200 mg/kg, 120 h, dose level Low, time 5 day
[2] = 1100 mg/kg, 72 h, dose level High, time 3 day
[3] = 1100 mg/kg, 120 h, dose level High, time 5 day

## CC1(C)S[C@@H]2[C@H](NC(=O)[C@H](N)c3ccc(O)cc3)C(=O)N2[C@H]1C(=O)O [AMOXICILLIN]
[1]
  ABSOLUTE BASOPHIL: 0 CELLS/uL
  ABSOLUTE EOSINOPHIL: 0 CELLS/uL
  ABSOLUTE LYMPHOCYTE: 6222 CELLS/uL
  ABSOLUTE MONOCYTE: 124 CELLS/uL
  ABSOLUTE SEGMENTED NEUTROPHIL: 487.33 CELLS/uL
  BASOPHIL: 0%
  EOSINOPHIL: 0%
  ERYTHROCYTE COUNT: 5.52 x10E6/uL
  HEMATOCRIT: 34.17%
  HEMOGLOBIN: 13.17 G/DL
  LEUKOCYTE COUNT: 6.83 x10E3/uL
  LYMPHOCYTE: 90.67%
  MEAN CORPUSCULAR HEMOGLOBIN: 23.87 pg
  MEAN CORPUSCULAR HEMOGLOBIN CONCENTRATION: 38.53 G/DL
  MEAN CORPUSCULAR VOLUME: 61.87 fL
  MONOCYTE: 2%
  NEUTROPHIL: 7.33%
  NUCLEATED RED BLOOD CELLS: 0 /100WBC
  PLATELET COUNT: 1169.67 x10E3/uL
  ALANINE AMINOTRANSFERASE: 61.67 u/L
  ALBUMIN: 4.07 G/DL
  ALKALINE PHOSPHATASE: 419.67 u/L
  ASPARTATE AMINOTRANSFERASE: 85.33 u/L
  BLOOD UREA NITROGEN: 19 mg/dL
  CARBON DIOXIDE: 35 mmol/L
  CHLORIDE: 99.33 MEQ/L
  CHOLESTEROL: 64.33 mg/dL
  CREATINE PHOSPHOKINASE: 366.67 u/L
  CREATININE: 0.22 mg/dL
  GLUCOSE: 133.67 mg/dL
  LACTATE DEHYDROGENASE: 112.33 u/L
  LIPASE: 9 u/L
  PHOSPHORUS: 11.07 mg/dL
  SODIUM: 143.8 MEQ/L
  TOTAL BILIRUBIN: 0.17 mg/dL
  TOTAL PROTEIN: 6.17 G/DL
  URIC ACID: 0.73 mg/dL
[2]
  ABSOLUTE BASOPHIL: 0 CELLS/uL
  ABSOLUTE EOSINOPHIL: 0 CELLS/uL
  ABSOLUTE LYMPHOCYTE: 13682.33 CELLS/uL
  ABSOLUTE MONOCYTE: 492.67 CELLS/uL
  ABSOLUTE SEGMENTED NEUTROPHIL: 958.33 CELLS/uL
  BASOPHIL: 0%
  EOSINOPHIL: 0%
  ERYTHROCYTE COUNT: 6.16 x10E6/uL
  HEMATOCRIT: 39.43%
  HEMOGLOBIN: 14.47 G/DL
  LEUKOCYTE COUNT: 15.13 x10E3/uL
  LYMPHOCYTE: 90%
  MEAN CORPUSCULAR HEMOGLOBIN: 23.5 pg
  MEAN CORPUSCULAR HEMOGLOBIN CONCENTRATION: 36.7 G/DL
  MEAN CORPUSCULAR VOLUME: 64.03 fL
  MONOCYTE: 3.33%
  NEUTROPHIL: 6.67%
  NUCLEATED RED BLOOD CELLS: 0 /100WBC
  PLATELET COUNT: 1311.33 x10E3/uL
  ALANINE AMINOTRANSFERASE: 52.33 u/L
  ALBUMIN: 4.43 G/DL
  ALKALINE PHOSPHATASE: 365.33 u/L
  ASPARTATE AMINOTRANSFERASE: 83 u/L
  BLOOD UREA NITROGEN: 16.33 mg/dL
  CARBON DIOXIDE: 32 mmol/L
  CHLORIDE: 101.33 MEQ/L
  CHOLESTEROL: 79.67 mg/dL
  CREATINE PHOSPHOKINASE: 343 u/L
  CREATININE: 0.2 mg/dL
  GLUCOSE: 138 mg/dL
  LACTATE DEHYDROGENASE: 129.67 u/L
  LIPASE: 9.33 u/L
  PHOSPHORUS: 12.4 mg/dL
  SODIUM: 142.9 MEQ/L
  TOTAL BILIRUBIN: 0.17 mg/dL
  TOTAL PROTEIN: 6.17 G/DL
  URIC ACID: 2.13 mg/dL
[3]
  ABSOLUTE BASOPHIL: 0 CELLS/uL
  ABSOLUTE EOSINOPHIL: 0 CELLS/uL
  ABSOLUTE LYMPHOCYTE: 7076 CELLS/uL
  ABSOLUTE MONOCYTE: 76 CELLS/uL
  ABSOLUTE SEGMENTED NEUTROPHIL: 448 CELLS/uL
  BASOPHIL: 0%
  EOSINOPHIL: 0%
  ERYTHROCYTE COUNT: 6.01 x10E6/uL
  HEMATOCRIT: 37.2%
  HEMOGLOBIN: 14.1 G/DL
  LEUKOCYTE COUNT: 7.6 x10E3/uL
  LYMPHOCYTE: 92.33%
  MEAN CORPUSCULAR HEMOGLOBIN: 23.5 pg
  MEAN CORPUSCULAR HEMOGLOBIN CONCENTRATION: 37.9 G/DL
  MEAN CORPUSCULAR VOLUME: 61.93 fL
  MONOCYTE: 1%
  NEUTROPHIL: 6.67%
  NUCLEATED RED BLOOD CELLS: 0 /100WBC
  PLATELET COUNT: 1145.67 x10E3/uL
  ALANINE AMINOTRANSFERASE: 59.33 u/L
  ALBUMIN: 4.43 G/DL
  ALKALINE PHOSPHATASE: 434 u/L
  ASPARTATE AMINOTRANSFERASE: 94.33 u/L
  BLOOD UREA NITROGEN: 17.33 mg/dL
  CARBON DIOXIDE: 33 mmol/L
  CHLORIDE: 100.33 MEQ/L
  CHOLESTEROL: 75 mg/dL
  CREATINE PHOSPHOKINASE: 622.67 u/L
  CREATININE: 0.12 mg/dL
  GLUCOSE: 113 mg/dL
  LACTATE DEHYDROGENASE: 161.33 u/L
  LIPASE: 9 u/L
  PHOSPHORUS: 10.27 mg/dL
  SODIUM: 144.67 MEQ/L
  TOTAL BILIRUBIN: 0.13 mg/dL
  TOTAL PROTEIN: 5.67 G/DL
  URIC ACID: 0.8 mg/dL
